Assay results from US10206937B2, “Boronic acid derivatives and therapeutic uses thereof” (Qpex Biopharma, Inc., priority 2014, dated 2019).

Tested on: strains of Enterobacteriaceae producing various carbapenemases (class A, D and B; 104 strains)
Assay: Antibiotics potentiation by Compound 27 (MIC; meropenem, doripenem, ertapenem, cefepime)
Format: cell-based
Details: + 27 = with Compound 27 at fixed 4 μg/ml

COc1ccc2c(c1C(=O)O)OB(O)C(Sc1nnc(N)s1)C2 (stereo not shown) [E + 27]
MIC (strain KP1081 Klebsiella pneumoniae (NDM-1, TEM-1, SHV-11, CMY-6, CTX-M-15)): Y (MIC of 1 μg/mL to 10 μg/mL) | MIC (strain KP1082 Klebsiella pneumoniae (KPC-2, SHV-1)): X (MIC of less than 1 μg/mL) | MIC (strain KP1083 Klebsiella pneumoniae (KPC-3, SHV-1, TEM-1)): X (MIC of less than 1 μg/mL) | MIC (strain KP1084 Klebsiella pneumoniae (KPC-3, SHV-11, TEM-1)): Z (MIC of greater than 10 μg/mL) | MIC (strain KP1086 Klebsiella pneumoniae (OXA-48, CTX-M-15, TEM, SHV)): Z (MIC of greater than 10 μg/mL) | MIC (strain KP1087 Klebsiella pneumoniae (KPC-2, CTX-M-15, SHV-11, TEM-1)): Y (MIC of 1 μg/mL to 10 μg/mL) | MIC (strain KP1088 Klebsiella pneumoniae (KPC-3, SHV-11, TEM-1)): X (MIC of less than 1 μg/mL) | MIC (strain KP1089 Klebsiella pneumonias (OXA-181, CTX-M-15, TEM, SHV)): X (MIC of less than 1 μg/mL) | MIC (strain KP1095 Klebsiella pneumoniae (KPC-2 TEM-1 SHV-1)): X (MIC of less than 1 μg/mL) | MIC (strain KP1096 Klebsiella pneumoniae (KPC-2 TEM-181 SHV-11)): X (MIC of less than 1 μg/mL) | MIC (strain KP1097 Klebsiella pneumonias (IMP-1)): X (MIC of less than 1 μg/mL) | MIC (strain KP1098 Klebsiella pneumoniae (IMP-26)): Y (MIC of 1 μg/mL to 10 μg/mL) | MIC (strain KP1104 Klebsiella pneumoniae (KPC TEM)): X (MIC of less than 1 μg/mL) | MIC (strain KP1105 Klebsiella pneumoniae (KPC TEM SHV)): X (MIC of less than 1 μg/mL) | MIC (strain KP1159 Klebsiella pneumoniae (SHV-1(2b); CTX-M-15; IMP-4)): Y (MIC of 1 μg/mL to 10 μg/mL) | MIC (strain KP1160 Klebsiella pneumoniae (SHV-28(2be); CTX-M-15; IMP-26)): Y (MIC of 1 μg/mL to 10 μg/mL) | MIC (strain KP1161 Klebsiella pneumoniae (NDM-1)): X (MIC of less than 1 μg/mL) | MIC (strain KP1164 Klebsiella pneumoniae (SHV-12(2be); VIM-1)): X (MIC of less than 1 μg/mL) | MIC (strain KP1165 Klebsiella pneumoniae (SHV-11(2b); CTX-M-15; VIM-27)): Z (MIC of greater than 10 μg/mL) | MIC (strain KP1166 Klebsiella pneumoniae (SHV-5(2be); VIM-26)): Y (MIC of 1 μg/mL to 10 μg/mL) | MIC (strain KP1167 Klebsiella pneumoniae (SHV-12(2be); VIM-1)): X (MIC of less than 1 μg/mL) | MIC (strain KP1169 Klebsiella pneumoniae (SHV-11(2b); VIM-1)): X (MIC of less than 1 μg/mL) | MIC (strain KP1170 Klebsiella pneumoniae (SHV-11(2b); CTX-M-15; NDM-1)): X (MIC of less than 1 μg/mL) | MIC (strain KP1172 Klebsiella pneumoniae (SHV-31(2be); DHA-1; VIM-1)): X (MIC of less than 1 μg/mL) | MIC (strain KP1173 Klebsiella pneumoniae (TEM-33(2br); CTX-M-15; IMP-1)): X (MIC of less than 1 μg/mL) | MIC (strain KP1174 Klebsiella pneumoniae (CTX-M-14; IMP-1)): X (MIC of less than 1 μg/mL) | MIC (strain KP1175 Klebsiella pneumoniae (SHV-OSBL(2b); VIM-1)): X (MIC of less than 1 μg/mL) | MIC (strain KP1177 Klebsiella pneumoniae (SHV-OSBL(2b), TEM-OSBL(2b); CTX-M-15; NDM-1)): X (MIC of less than 1 μg/mL) | MIC (strain KP1178 Klebsiella pneumoniae (SHV-OSBL(2b;) TEM-OSBL(2b); CTX-M-15; NDM-1)): X (MIC of less than 1 μg/mL) | MIC (strain KP1179 Klebsiella pneumoniae (SHV-12(2be), TEM-OSBL(2b); CTX-M-15; NDM-7)): X (MIC of less than 1 μg/mL) | MIC (strain KP1180 Klebsiella pneumoniae (SHV-OSBL(2b), TEM-OSBL(2b); CTX-M-15; DHA-1; IMP-26)): X (MIC of less than 1 μg/mL) | MIC (strain KP1181 Klebsiella pneumoniae (SHV-OSBL(2b); CTX-M-15; IMP-26)): X (MIC of less than 1 μg/mL) | MIC (strain KP1183 Klebsiella pneumoniae (SHV-OSBL(2b), TEM-OSBL(2b); CTX-M-15; NDM-1)): X (MIC of less than 1 μg/mL) | MIC (strain KP1184 Klebsiella pneumoniae (SHV-OSBL(2b); IMP-1)): X (MIC of less than 1 μg/mL) | MIC (strain KP1185 Klebsiella pneumoniae (SHV-OSBL(2b), TEM-OSBL(2b); IMP-4)): Y (MIC of 1 μg/mL to 10 μg/mL) | MIC (strain KP1186 Klebsiella pneumoniae (CTX-M-15; NDM-1)): X (MIC of less than 1 μg/mL) | MIC (strain KP1187 Klebsiella pneumoniae (SHV-55(2be), TEM-OSBL(2b); CTX-M-15; NDM-1)): X (MIC of less than 1 μg/mL) | MIC (strain KP1188 Klebsiella pneumoniae (SHV-OSBL(2b); CTX-M-15; NDM-1)): Y (MIC of 1 μg/mL to 10 μg/mL) | MIC (strain KP1189 Klebsiella pneumoniae (TEM-OSBL(2b); CTX-M-15; CTX-M-27; NDM-1)): X (MIC of less than 1 μg/mL) | MIC (strain KPM1123 Klebsiella pneumoniae (KPC-2 TEM SHV)): X (MIC of less than 1 μg/mL) | MIC (strain KPM1202 Klebsiella pneumoniae (KPC SHV TEM)): X (MIC of less than 1 μg/mL) | MIC (strain KPM1203 Klebsiella pneumoniae (KPC SHV TEM)): X (MIC of less than 1 μg/mL) | MIC (strain KPM1344 Klebsiella pneumoniae (VIM-1)): X (MIC of less than 1 μg/mL) | MIC (strain KPM1345 Klebsiella pneumoniae (VIM-1 SHV)): X (MIC of less than 1 μg/mL) | MIC (strain KPM1347 Klebsiella pneumoniae (NDM-1 SHV CTX-M-15)): X (MIC of less than 1 μg/mL) | MIC (strain KX1017 Klebsiella oxytoca (KPC-2, OXA-2, SHV-30)): X (MIC of less than 1 μg/mL) | MIC (strain KX1018 Klebsiella oxytoca (KPC-2, SHV-40, OXY-1)): X (MIC of less than 1 μg/mL) | MIC (strain KX1019 Klebsiella oxytoca (KPC-2, OXA-2)): X (MIC of less than 1 μg/mL) | MIC (strain PM1024 Proteus mirabilis (TEM-1(2b); CMY-16; VIM-1)): X (MIC of less than 1 μg/mL) | MIC (strain PM1026 Proteus mirabilis (DHA-1; IMP-26)): X (MIC of less than 1 μg/mL) | MIC (strain PM1027 Proteus mirabilis (VIM-5)): X (MIC of less than 1 μg/mL) | MIC (strain SM1023 Serratia marcescens (VIM-4)): Y (MIC of 1 μg/mL to 10 μg/mL)
